pIC50: −log10 of the molar value.
Biological target: Human factor D (Homo sapiens (Human), UniProt P00746)
Assay: Human Factor D Assay
Format: biochemical
Conditions: not given
Procedure: Human factor D (purified from human serum, Complement Technology, Inc.) at 80 nM final concentration is incubated with test compound at various concentrations for 5 minutes at room temperature in 50 mM Tris, 1M NaCl, pH 7.5. A synthetic substrate Z-L-Lys-SBzl and DTNB (Ellman's reagent) are added to final concentrations of 100 μM each. The increase in color is recorded at OD405 nm in a microplate in kinetic mode over 30 minutes with 30 second time points in a spectrofluorimeter. IC50 values are calculated by non-linear regression from the percentage of inhibition of complement factor D activity as a function of test compound concentration.

Sequence of Human factor D (P00746 26-253): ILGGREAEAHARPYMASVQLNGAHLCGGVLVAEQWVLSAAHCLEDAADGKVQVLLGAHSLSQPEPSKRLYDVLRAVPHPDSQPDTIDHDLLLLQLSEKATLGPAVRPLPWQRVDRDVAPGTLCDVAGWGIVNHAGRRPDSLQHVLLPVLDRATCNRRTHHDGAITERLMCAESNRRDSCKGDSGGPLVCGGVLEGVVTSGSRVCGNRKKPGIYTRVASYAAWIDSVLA

Question: How did the pIC50 turn out when `NC(=O)c1nn(CC(=O)N2C[C@H](F)C[C@H]2C(=O)NCc2cccnc2)c2ccc(-c3ccnnc3)cc12` [Compound 39, 1-(2-((2S,4R)-4-fluoro-2-(pyridin-3-ylmethylcarbamoyl)pyrrolidin-1-yl)-2-oxoethyl)-5-(pyridazin-4-yl)-1H-indazole-3-carboxamide] was run?
Answer: Its pIC50 is 5.00 to 6.00.

Question: `CCN1Cc2ccc(NC(=O)[C@@H]3C[C@@H](F)CN3C(=O)Cn3cc(C(C)=O)c4cc(-c5ccnnc5)ccc43)cc2C1=O` [Compound 49, (2S,4R)-1-(2-(3-acetyl-5-(pyridazin-4-yl)-1H-indol-1-yl)acetyl)-N-(2-ethyl-3-oxoisoindolin-5-yl)-4-fluoropyrrolidine-2-carboxamide] was tested. Which pIC50 did it give?
Answer: Its pIC50 is 5.00 to 6.00.

Question: `CC(=O)c1cn(CC(=O)N2C[C@H](F)C[C@H]2C(=O)NCc2cccnc2)c2ccc(-c3ccnnc3)cc12` [Compound 59, (2S,4R)-1-(2-(3-acetyl-5-(pyridazin-4-yl)-1H-indol-1-yl)acetyl)-4-fluoro-N-(pyridin-3-ylmethyl)pyrrolidine-2-carboxamide] was tested. Which pIC50 did it give?
Answer: Its pIC50 is 5.00 to 6.00.

Same assay, conditions: human factor D 80 nM, substrate Z-L-Lys-SBzl, DTNB

Question: `CC(=O)c1cn(CC(=O)N2C[C@H](F)C[C@H]2C(=O)Nc2cccc(-c3ccccc3Cl)c2F)c2ccc(N3CCN(c4ncc(F)cn4)CC3)cc12` [Compound 32, (2S,4R)-1-(2-(3-acetyl-5-(4-(5-fluoropyrimidin-2-yl)piperazin-1-yl)-1H-indol-1-yl)acetyl)-N-(2′-chloro-2-fluorobiphenyl-3-yl)-4-fluoropyrrolidine-2-carboxamide] was tested. Which pIC50 did it give?
Answer: Its pIC50 is over 6.00.

Question: How did the pIC50 turn out when `CC(=O)c1cn(CC(=O)N2C[C@H](F)C[C@H]2C(=O)Nc2cccc(-c3ccccc3Cl)c2F)c2ccc(N3CCN(S(C)(=O)=O)CC3)cc12` [Compound 33, (2S,4R)-1-(2-(3-acetyl-5-(4-(methylsulfonyl)piperazin-1-yl)-1H-indol-1-yl)acetyl)-N-(2′-chloro-2-fluorobiphenyl-3-yl)-4-fluoropyrrolidine-2-carboxamide] was run?
Answer: Its pIC50 is over 6.00.

Question: `CC(=O)c1cn(CC(=O)N2C[C@H](F)C[C@H]2C(=O)Nc2ccccc2-c2nc3ccccc3s2)c2ccc(-c3ccnnc3)cc12` [Compound 34, (2S,4R)-1-(2-(3-acetyl-5-(pyridazin-4-yl)-1H-indol-1-yl)acetyl)-N-(2-(benzo[d]thiazol-2-yl)phenyl)-4-fluoropyrrolidine-2-carboxamide] was tested. Which pIC50 did it give?
Answer: The pIC50 was under 5.00.

Question: With `CC(=O)c1cn(CC(=O)N2C[C@H](F)C[C@H]2C(=O)NCc2ccccn2)c2ccc(-c3ccnnc3)cc12` [Compound 38, (2S,4R)-1-(2-(3-acetyl-5-(pyridazin-4-yl)-1H-indol-1-yl)acetyl)-4-fluoro-N-(pyridin-2-ylmethyl)pyrrolidine-2-carboxamide] as the compound, how does the pIC50 read?
Answer: The pIC50 was over 6.00.

Question: `CC(=O)c1cn(CC(=O)N2C[C@H](F)C[C@H]2C(=O)Nc2noc3cc(C(F)(F)F)ccc23)c2ccc(-c3ccnnc3)cc12` [Compound 42, (2S,4R)-1-(2-(3-acetyl-5-(pyridazin-4-yl)-1H-indol-1-yl)acetyl)-4-fluoro-N-(6-(trifluoromethyl)benzo [d]isoxazol-3-yl)pyrrolidine-2-carboxamide] was tested. Which pIC50 did it give?
Answer: Its pIC50 is under 5.00.

Question: How did the pIC50 turn out when `CC(=O)c1cn(CC(=O)N2C[C@H](F)C[C@H]2C(=O)NCc2cccc(Cl)c2)c2ccc(-c3ccnnc3)cc12` [Compound 44, (2S,4R)-1-(2-(3-acetyl-5-(pyridazin-4-yl)-1H-indol-1-yl)acetyl)-N-(3-chlorobenzyl)-4-fluoropyrrolidine-2-carboxamide] was run?
Answer: The pIC50 was over 6.00.

Question: How did the pIC50 turn out when `NC(=O)c1nn(CC(=O)N2C[C@H](F)C[C@H]2C(=O)NCc2cccc(Cl)c2)c2ccc(-c3ccnnc3)cc12` [Compound 45, 1-(2-((2S,4R)-2-(3-chlorobenzylcarbamoyl)-4-fluoropyrrolidin-1-yl)-2-oxoethyl)-5-(pyridazin-4-yl)-1H-indazole-3-carboxamide] was run?
Answer: Its pIC50 is over 6.00.

Question: With `CC(=O)c1cn(CC(=O)N2C[C@H](F)C[C@H]2C(=O)NCc2cc(F)cc(Cl)c2)c2ccc(-c3ccnnc3)cc12` [Compound 46, (2S,4R)-1-(2-(3-acetyl-5-(pyridazin-4-yl)-1H-indol-1-yl)acetyl)-N-(3-chloro-5-fluorobenzyl)-4-fluoropyrrolidine-2-carboxamide] as the compound, how does the pIC50 read?
Answer: Its pIC50 is over 6.00.

Question: How did the pIC50 turn out when `NC(=O)c1nn(CC(=O)N2C[C@H](F)C[C@H]2C(=O)Nc2cccnc2)c2ccc(-c3ccnnc3)cc12` [Compound 47, 1-(2-((2S,4R)-4-fluoro-2-(pyridin-3-ylcarbamoyl)pyrrolidin-1-yl)-2-oxoethyl)-5-(pyridazin-4-yl)-1H-indazole-3-carboxamide] was run?
Answer: Its pIC50 is under 5.00.

Question: How did the pIC50 turn out when `CCN1Cc2ccc(NC(=O)[C@@H]3C[C@@H](F)CN3C(=O)Cn3nc(C(N)=O)c4cc(-c5ccnnc5)ccc43)cc2C1=O` [Compound 48, 1-(2-((2S,4R)-2-(2-ethyl-3-oxoisoindolin-5-ylcarbamoyl)-4-fluoropyrrolidin-1-yl)-2-oxoethyl)-5-(pyridazin-4-yl)-1H-indazole-3-carboxamide] was run?
Answer: The pIC50 was under 5.00.

Question: How did the pIC50 turn out when `NC(=O)c1nn(CC(=O)N2C[C@H](F)C[C@H]2C(=O)Nc2ccc3ncsc3c2)c2ccc(-c3ccnnc3)cc12` [Compound 50, 1-(2-((2S,4R)-2-(benzo[d]thiazol-6-ylcarbamoyl)-4-fluoropyrrolidin-1-yl)-2-oxoethyl)-5-(pyridazin-4-yl)-1H-indazole-3-carboxamide] was run?
Answer: Its pIC50 is under 5.00.

Question: With `NC(=O)c1nn(CC(=O)N2C[C@H](F)C[C@H]2C(=O)N[C@@H]2CCC[C@@H]2OCc2ccccc2)c2ccc(-c3ccnnc3)cc12` [Compound 51, 1-(2-((2S,4R)-2-((1R,2S)-2-(benzyloxy)cyclopentylcarbamoyl)-4-fluoropyrrolidin-1-yl)-2-oxoethyl)-5-(pyridazin-4-yl)-1H-indazole-3-carboxamide] as the compound, how does the pIC50 read?
Answer: Its pIC50 is under 5.00.

Question: With `NC(=O)c1nn(CC(=O)N2C[C@H](F)C[C@H]2C(=O)NCc2nc3ccccc3s2)c2ccc(-c3ccnnc3)cc12` [Compound 52, 1-(2-((2S,4R)-2-(benzo[d]thiazol-2-ylmethylcarbamoyl)-4-fluoropyrrolidin-1-yl)-2-oxoethyl)-5-(pyridazin-4-yl)-1H-indazole-3-carboxamide] as the compound, how does the pIC50 read?
Answer: The pIC50 was under 5.00.

Question: With `CC(=O)c1cn(CC(=O)N2C[C@H](F)C[C@H]2C(=O)Nc2nc(-c3ccc4c(c3)CCCC4)cs2)c2ccc(-c3ccnnc3)cc12` [Compound 54, (2S,4R)-1-(2-(3-acetyl-5-(pyridazin-4-yl)-1H-indol-1-yl)acetyl)-4-fluoro-N-(4-(5,6,7,8-tetrahydronaphthalen-2-yl)thiazol-2-yl)pyrrolidine-2-carboxamide] as the compound, how does the pIC50 read?
Answer: Its pIC50 is under 5.00.

Question: `NC(=O)c1nn(CC(=O)N2C[C@H](F)C[C@H]2C(=O)Nc2nc(-c3ccc4c(c3)CCCC4)cs2)c2ccc(-c3ccnnc3)cc12` [Compound 55, 1-(2-((2S,4R)-4-fluoro-2-(4-(5,6,7,8-tetrahydronaphthalen-2-yl)thiazol-2-ylcarbamoyl)pyrrolidin-1-yl)-2-oxoethyl)-5-(pyridazin-4-yl)-1H-indazole-3-carboxamide] was tested. Which pIC50 did it give?
Answer: The pIC50 was under 5.00.

Question: How did the pIC50 turn out when `CC(=O)c1cn(CC(=O)N2C[C@H](F)C[C@H]2C(=O)Nc2nc(-c3c(C)nc4sccn34)cs2)c2ccc(-c3ccnnc3)cc12` [Compound 57, (2S,4R)-1-(2-(3-acetyl-5-(pyridazin-4-yl)-1H-indol-1-yl)acetyl)-4-fluoro-N-(4-(6-methylimidazo[2,1-b]thiazol-5-yl)thiazol-2-yl)pyrrolidine-2-carboxamide] was run?
Answer: The pIC50 was under 5.00.

Question: With `CC(=O)c1cn(CC(=O)N2C[C@H](F)C[C@H]2C(=O)Nc2ccc(CNC(=O)OCC3c4ccccc4-c4ccccc43)cc2)c2ccc(-c3ccnnc3)cc12` [Compound 61] as the compound, how does the pIC50 read?
Answer: Its pIC50 is under 5.00.

Question: With `NC(=O)c1nn(CC(=O)N2C[C@H](F)C[C@H]2C(=O)NCc2cc(F)cc(Cl)c2)c2ccc(-c3ccnnc3)cc12` [Compound 62, 1-(2-((2S,4R)-2-(3-chloro-5-fluorobenzylcarbamoyl)-4-fluoropyrrolidin-1-yl)-2-oxoethyl)-5-(pyridazin-4-yl)-1H-indazole-3-carboxamide] as the compound, how does the pIC50 read?
Answer: Its pIC50 is over 6.00.

Question: `CC(=O)c1cn(CC(=O)N2C[C@H](F)C[C@H]2C(=O)Nc2ccccc2N2CCOC2=O)c2ccc(-c3ccnnc3)cc12` [Compound 64, (2S,4R)-1-(2-(3-acetyl-5-(pyridazin-4-yl)-1H-indol-1-yl)acetyl)-4-fluoro-N-(2-(2-oxooxazolidin-3-yl)phenyl)pyrrolidine-2-carboxamide] was tested. Which pIC50 did it give?
Answer: The pIC50 was under 5.00.

Question: How did the pIC50 turn out when `NC(=O)c1nn(CC(=O)N2C[C@H](F)C[C@H]2C(=O)Nc2ccccc2N2CCOC2=O)c2ccc(-c3ccnnc3)cc12` [Compound 65, 1-(2-((2S,4R)-4-fluoro-2-(2-(2-oxooxazolidin-3-yl)phenylcarbamoyl)pyrrolidin-1-yl)-2-oxoethyl)-5-(pyridazin-4-yl)-1H-indazole-3-carboxamide] was run?
Answer: The pIC50 was under 5.00.

Question: `CC(=O)c1cn(CC(=O)N2C[C@H](F)C[C@H]2C(=O)Nc2cncc(Cl)c2)c2ccc(-c3ccnnc3)cc12` [Compound 66, (2S,4R)-1-(2-(3-acetyl-5-(pyridazin-4-yl)-1H-indol-1-yl)acetyl)-N-(5-chloropyridin-3-yl)-4-fluoropyrrolidine-2-carboxamide] was tested. Which pIC50 did it give?
Answer: The pIC50 was over 6.00.

Question: With `CC(=O)c1cn(CC(=O)N2C[C@H](F)C[C@H]2C(=O)Nc2cncc(Br)c2)c2ccc(-c3ccnnc3)cc12` [Compound 68, (2S,4R)-1-(2-(3-acetyl-5-(pyridazin-4-yl)-1H-indol-1-yl)acetyl)-N-(5-bromopyridin-3-yl)-4-fluoropyrrolidine-2-carboxamide] as the compound, how does the pIC50 read?
Answer: The pIC50 was over 6.00.

Question: `NC(=O)c1nn(CC(=O)N2C[C@H](F)C[C@H]2C(=O)Nc2nnc(-c3ccc(Cl)c(Cl)c3)s2)c2ccc(-c3ccnnc3)cc12` [Compound 69, 1-(2-((2S,4R)-2-(5-(3,4-dichlorophenyl)-1,3,4-thiadiazol-2-ylcarbamoyl)-4-fluoropyrrolidin-1-yl)-2-oxoethyl)-5-(pyridazin-4-yl)-1H-indazole-3-carboxamide] was tested. Which pIC50 did it give?
Answer: The pIC50 was under 5.00.
